Source: publication PMC9967275, “Screening the Pathogen Box to Discover and Characterize New Cruzain and TbrCatL Inhibitors” (Pathogens, 2023)
Where two headings read alike, the source gives them in different places.

Experiments:
cruzain = cruzain (Trypanosoma cruzi, UniProt P25779); assay: biochemical;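 as to Cruzain 0’ Inhibition: at 5 µM compound concentration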;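 as to Cruzain 10’ Inhibition: at 5 µM compound concentration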;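 as to Cruzain Inhibition 0’: at 5 µM compound concentration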;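 as to Cruzain Inhibition 10’: at 5 µM compound concentration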
Chain of cruzain (P25779 123-337 limits assumed): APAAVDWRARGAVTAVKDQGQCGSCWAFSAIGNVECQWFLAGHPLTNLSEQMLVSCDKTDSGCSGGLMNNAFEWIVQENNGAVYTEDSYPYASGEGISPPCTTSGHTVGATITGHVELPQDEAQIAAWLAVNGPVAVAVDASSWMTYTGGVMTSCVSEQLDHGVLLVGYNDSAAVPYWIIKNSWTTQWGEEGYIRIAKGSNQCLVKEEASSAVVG
Summary of the method: (§1)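 Recombinant enzymes assayed by Z-Phe-Arg-AMC cleavage at 25 °C, fluorescence 340/440 nm over 5–7 min, with 10 min or no enzyme–compound preincubation.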

TbrCatL = target: T1, TbrCatL (Trypanosoma brucei rhodesiense, UniProt Q95PM0); assay: TbrCatL enzymatic inhibition assay (cleavage of fluorogenic substrate Z-FR-AMC); format: biochemical; details: for TbrCatL 0’ Inhibition / TbrCatL 10’ Inhibition: sheet "Screening results";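 as to TbrCatL 0’ Inhibition: at 5 µM compound concentration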;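 as to TbrCatL 10’ Inhibition: at 5 µM compound concentration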;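 as to TbrCatL Inhibition 0’: at 5 µM compound concentration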;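 as to TbrCatL Inhibition 10’: at 5 µM compound concentration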
T1 construct: Conor Caffrey (University of California San Diego)
T1 sequence (Q95PM0 entry or part of it): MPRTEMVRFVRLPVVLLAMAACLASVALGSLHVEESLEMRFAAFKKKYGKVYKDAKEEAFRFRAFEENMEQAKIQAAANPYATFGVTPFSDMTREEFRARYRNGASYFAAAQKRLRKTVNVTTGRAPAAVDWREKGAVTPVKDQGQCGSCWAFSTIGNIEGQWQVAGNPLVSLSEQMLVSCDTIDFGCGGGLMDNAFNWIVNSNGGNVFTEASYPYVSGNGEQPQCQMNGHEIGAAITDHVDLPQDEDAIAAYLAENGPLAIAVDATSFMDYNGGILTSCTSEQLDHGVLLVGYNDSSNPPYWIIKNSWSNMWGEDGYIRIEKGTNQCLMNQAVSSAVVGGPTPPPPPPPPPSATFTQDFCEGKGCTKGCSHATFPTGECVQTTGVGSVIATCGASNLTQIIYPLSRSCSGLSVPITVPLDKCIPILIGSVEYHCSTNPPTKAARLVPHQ
Summary of the method: as §1

[1] = 0’ (no pre-incubation), sheet Screening results
[2] = 10’ (pre-incubation), sheet Screening results
[3] = 0’ (pre-incubation time), sheet "Screening results"
[4] = 10’ (pre-incubation time), sheet "Screening results"
[5] = 0’ (pre-incubation time), Pathogen Box screening results
[6] = 10’ (pre-incubation time), Pathogen Box screening results

Compound | Cruzain Inhibition 0’ (cruzain; [1]) | Cruzain Inhibition 10’ (cruzain; [2]) | TbrCatL Inhibition 0’ (TbrCatL; [1]) | TbrCatL Inhibition 10’ (TbrCatL; [2]) | Cruzain 0’ Inhibition (cruzain; [3]) | Cruzain 10’ Inhibition (cruzain; [4]) | TbrCatL 0’ Inhibition (TbrCatL; 0’ (pre-incubation time)) | TbrCatL 10’ Inhibition (TbrCatL; 10’ (pre-incubation time)) | other results
CC(C)(C)C(O)C(Oc1ccc(-c2ccccc2)cc1)n1cncn1 (centres unmarked) [MMV688942] | 14% | 9% | 13% | -1.4% | – | – | – | – | –
FC(F)(F)c1cnc(Sc2nnc(-c3ccncc3)o2)c(Cl)c1 [MMV011765] | – | – | – | – | 0.7% | -0.5% | -4% | -1.2% | –
COc1ccc(-c2nc(-c3cccc(NC(=O)Cc4ccc(F)cc4)c3)no2)cc1OC [MMV676571] | 6% | 4% | 8% | 10% | – | – | – | – | –
c1ccc(Oc2ccc(-c3cc(N4CCNCC4)[nH]n3)cc2)cc1 [MMV687706] | – | – | – | – | 2.4% | 4% | -6% | 23% | –
CCOc1ccc(-c2nc(CNCCc3ccc(F)cc3)cs2)cc1 [MMV688938] | – | – | – | – | 6% | 12% | 3% | -3.6% | –
O=C(Nc1ccc(N2CCNCC2)cc1)c1ccn2ncc(-c3cccc(Cl)c3)c2n1 [MMV022478] | – | – | – | – | 15% | 18% | 1.7% | 10% | –
O=C(Nc1cccnc1)c1c(O)c2cccc3c2n(c1=O)CC3 [MMV676395] | 10% | 8% | 17% | 19% | – | – | – | – | –
CC(C(=O)Nc1ccc2oc(-c3ccncc3)nc2c1)c1ccccc1 (centres unmarked) [MMV688471] | 19% | 15% | 26% | 20% | – | – | – | – | –
COc1ccccc1C(C)NCC(=O)Nc1cc(C(F)(F)F)ccc1Cl (centres unmarked) [MMV020321] | 0.3% | -0.8% | -9% | -10% | – | – | – | – | –
CO[C@@H](C(=O)N1Cc2[nH]nc(NC(=O)c3ccc(N4CCN(C)CC4)cc3)c2C1)c1ccccc1 [MMV676600] | 24% | 12% | 7.5% | 11% | – | – | – | – | –
COc1ccc(CN2CCOc3ccc(C(C)(O)CN(C)C)cc3C2)cc1C (centres unmarked) [MMV008439] | 0.3% | 0% | -5% | -3.4% | – | – | – | – | –
FC(F)(F)c1ccc(N(c2cccnc2)C2CCN(c3ccc(C(F)(F)F)cn3)CC2)cc1 [MMV689243] | – | – | – | – | 2.3% | -3% | -9% | -5% | –
O=C(Nc1nc(-c2ccccn2)cs1)C1CC1c1ccccc1F (centres unmarked) [MMV1028806] | 24% | 17% | 17% | 3.6% | – | – | – | – | –
O=C(NCCc1ccn(-c2ccccc2)n1)C1CCCCC1 [MMV688795] | – | – | – | – | 3.2% | 4% | 5% | 5.4% | –
c1ccc(Oc2ccc(-c3cc(CN4CCOCC4)[nH]n3)cc2)cc1 [MMV676161] | – | – | – | – | -1.3% | 1.7% | -3% | -2.5% | –
CC(=O)N1CCc2cc3nc(C)cc(C)c3cc21 [MMV054312] | 10% | 11% | 9% | 19% | – | – | – | – | –
CC(C)(C(=O)Nc1ccc(F)cc1)n1cc(-c2ccccc2F)cn1 [MMV687239] | 7% | -3% | 1.1% | -6% | – | – | – | – | –

Compound | Cruzain Inhibition 0’ (cruzain; [1]) | Cruzain Inhibition 10’ (cruzain; [2]) | TbrCatL Inhibition 0’ (TbrCatL; [1]) | TbrCatL Inhibition 10’ (TbrCatL; [2]) | Cruzain 0’ Inhibition (cruzain; [3]) | Cruzain 10’ Inhibition (cruzain; [4]) | TbrCatL 0’ Inhibition (TbrCatL; 0’ (pre-incubation time)) | TbrCatL 10’ Inhibition (TbrCatL; 10’ (pre-incubation time)) | other results
Cc1ncc(-c2ccnc(Nc3ccc(S(C)(=O)=O)cc3)n2)n1C(C)C [MMV676604] | 22% | 3.2% | 3% | -26% | – | – | – | – | –
CC(C)C(C(=O)Nc1ccc(S(=O)(=O)N(C)C)cc1)c1ccc(Cl)cc1 (centres unmarked) [MMV020391] | -1.5% | 2% | -3.4% | -2.5% | – | – | – | – | –
COc1ccc(-c2cnc3ccc(N4CCCC4)nn23)cc1OC [MMV023985] | – | – | – | – | -3.2% | -13% | -7% | -1% | –
CN1CCC(c2cc(-c3ccncc3)c(-c3ccc(F)cc3)[nH]2)CC1 [MMV688703] | – | – | – | – | 3.7% | 1.9% | 6% | 3.6% | –
COC(=O)c1cccc2oc(-c3cccc(OC)c3NC(=O)c3cc(-c4ccccc4)on3)nc12 [MMV676186] | – | – | – | – | -3.5% | 5.3% | -3.7% | -5% | –
Cc1cnc(N2CCN[C@@H](Cc3ccccc3)C2)nc1Oc1ccc(-n2ccnc2)cc1 [MMV687765] | – | – | – | – | 4.4% | 13% | 5% | 8.5% | –
N#CCN(CCCCN1CCN(c2ccc(F)cc2)CC1)C(=O)OCc1ccccc1 [MMV675997] | 1.2% | 3.2% | 1.6% | 5% | – | – | – | – | –
Nc1ccc2ncnc(Nc3ccc(OCc4cccc(F)c4)c(Cl)c3)c2c1 [MMV688273] | – | – | – | – | – | – | – | – | Cruzain Inhibition 0’ (cruzain; [5]): -11%; Cruzain Inhibition 10’ (cruzain; [6]): -18%; TbrCatL Inhibition 0’ (TbrCatL; [5]): 0.9%; TbrCatL Inhibition 10’ (TbrCatL; [6]): -14%
COc1cc(C(F)(F)F)nc2ccc(C)c(N)c12 [MMV047015] | – | – | – | – | 1.1% | 5.5% | 15% | 4% | –
CC1(C)Cc2c(c(N3CCOCC3)nc3snc(Br)c23)CO1 [MMV687794] | – | – | – | – | 8% | 27% | 4.7% | 25% | –
COc1ccc(OC)c(NCc2ccc3nc(N)nc(N)c3c2Cl)c1 [MMV675968] | – | – | – | – | 6.6% | 26% | 20% | 22% | –
Cc1ccccc1C(=O)N1NC(=Nc2ccccc2)SC1(C)C [MMV688771] | – | – | – | – | 29% | 8% | -5% | 0.3% | –
O=C(NCCc1ccccc1)c1cc(-c2cccnc2)cnc1NCC1CC1 [MMV026490] | – | – | – | – | -1.3% | -5% | 0.1% | -13% | –
N=C(N)Nc1ccc(-c2ccc(-c3ccc(NC(=N)N)c(Cl)c3)o2)cc1Cl [MMV688271] | – | – | – | – | – | – | – | – | inhibition at 5 µM (cruzain; read-out: Cruzain 0’ Inhibition, 0’ (pre-incubation time), sheet "Screening results"): 83%; inhibition at 5 µM (cruzain; read-out: Cruzain 10’ Inhibition, 10’ (pre-incubation time), sheet "Screening results"): 50%; inhibition at 5 µM (cruzain; read-out: Inhibition at 5 µM (Mean ± SEM %) Cruzain 0′, 5 µM, no pre-incubation, initial screening): 83 ± 10%; inhibition at 5 µM (cruzain; read-out: Inhibition at 5 µM (Mean ± SEM %) Cruzain 10′ inc, 5 µM, 10′ pre-incubation, initial screening): 50 ± 4%; inhibition at 5 µM (cruzain; read-out: Inhibition of cruzain or TbrCatL (either enzyme) in the initial screening, 5 µM, either cruzain or TbrCatL, with or without pre-incubation): ≥ 60%; inhibition at 5 µM (TbrCatL; read-out: Inhibition at 5 µM (Mean ± SEM %) TbrCatL 0′): 53 ± 5%; inhibition at 5 µM (TbrCatL; read-out: Inhibition at 5 µM (Mean ± SEM %) TbrCatL 10′ inc): 43 ± 1%; inhibition at 5 µM (TbrCatL; read-out: TbrCatL 0’ Inhibition): 53%; inhibition at 5 µM (TbrCatL; read-out: TbrCatL 10’ Inhibition): 43%
NCCC[C@@](N)(C(=O)O)C(F)F [MMV001625] | 20% | 7% | 2% | -1.9% | – | – | – | – | –
CCOC(=O)NC(=O)c1ccsc1NC(=O)c1nc2ccccc2s1 [MMV090930] | -18% | 3% | 1.3% | 0.3% | – | – | – | – | –
